Structures can show the parent of a compound that is named as a salt.

The series can be described thus: in vitro. The conditions noted are these: rat, gh3-tre-luc cells.

In turn, `COc1ccc(N)cc1N` [2,4-Diaminoanisole sulfate] gave a CC50 at 24 h (AC50 (uM) modified / 1000) of 24.6 µM.

For the setting “AC50 (uM) modified / 1000”, `NCC(CC(=O)O)c1ccc(Cl)cc1` (centres unmarked) [Baclofen] came in with a cytotoxic concentration (CC50) at 24 h of over 50 µM.

The molecule `Nc1ccc(Sc2ccc(N)cc2)cc1` [4,4'-Thiodianiline] gave a cytotoxic concentration (CC50) at 24 h (AC50 (uM) modified / 1000) of over 90 µM.

Where the note is “AC50 (uM) modified / 1000”, `CCCCCCCCCCCCCCCCCBr` [1-Bromoheptadecane] returned a CC50 at 24 h of over 20 µM.

Molecule `C=C(C)C(=O)OCCOCCOCCOC(=O)C(=C)C` [Triethylene glycol dimethacrylate] displayed a CC50 at 24 h (AC50 (uM) modified / 1000) of over 90 µM.

As for `CN(CCO)CC(O)Cn1cnc2c1c(=O)n(C)c(=O)n2C` (centres unmarked) [Xanthinol niacinate], the CC50 at 24 h (AC50 (uM) modified / 1000) was over 50 µM.

In turn, `NC(Cc1ccc(F)cc1)C(=O)O` (racemic) [4-Fluoro-dl-phenylalanine] gave a CC50 at 24 h (AC50 (uM) modified / 1000) of 2.98 µM.

Turning to `OC[C@H]1O[C@@H](OCCc2ccc(O)cc2)[C@H](O)[C@@H](O)[C@@H]1O` [Salidroside], the CC50 at 24 h (AC50 (uM) modified / 1000) is over 50 µM.

For the molecule `CC(C)=CC(=O)O` [3,3-Dimethylacrylic acid], the CC50 at 24 h (AC50 (uM) modified / 1000) is over 90 µM.

With `C=CC(=O)OCC(C)OCC(C)OCC(C)OC(=O)C=C` (centres unmarked) [Tripropylene glycol diacrylate], the CC50 at 24 h (AC50 (uM) modified / 1000) was 36.2 µM.

Take `O=C(O)CCc1ccccc1` [Hydrocinnamic acid]: under “AC50 (uM) modified / 1000”, the 50% cytotoxic concentration (CC50) at 24 h was over 90 µM.

The molecule `C=C(C)[C@@H]1CC=C(C=O)CC1` [l-Perillaldehyde] displayed a CC50 at 24 h (AC50 (uM) modified / 1000) of over 90 µM.

For the molecule `CC1(C2CCC3(C)OC3C2)CO1` (centres unmarked) [Limonene dioxide], under “AC50 (uM) modified / 1000”, the CC50 at 24 h is over 90 µM.

In the case of `S=C=Nc1ccccc1` [Phenyl isothiocyanate], where the note is “AC50 (uM) modified / 1000”, the CC50 at 24 h is over 90 µM.

Under “AC50 (uM) modified / 1000”, `Brc1ccc(Oc2ccc(Br)cc2)cc1` [4,4'-Dibromodiphenyl ether] returned a CC50 at 24 h of over 90 µM.

In the case of `CN1CC[C@H](c2c(O)cc(O)c3c(=O)cc(-c4ccccc4Cl)oc23)[C@H](O)C1` [Flavopiridol hydrochloride], half-maximal cytotoxicity (AC50 (uM) modified / 1000) (CC50 at 24 h) was put at 0.302 µM.

Molecule `CC(C)NCC(O)c1ccc(N)c(C#N)c1` (centres unmarked) [Cimaterol] displayed a CC50 at 24 h (AC50 (uM) modified / 1000) of over 50 µM.

`CCCCOC(=O)[C@H](C)O` [Butyl (2S)-2-hydroxypropanoate] yielded a cytotoxic concentration (CC50) at 24 h (AC50 (uM) modified / 1000) of over 90 µM.

In the case of `CCC1(c2ccccc2)CCC(=O)NC1=O` (centres unmarked) [Glutethimide], for the setting “AC50 (uM) modified / 1000, Tox21_110001=Tox21_111641, viability, 1 nM T3 present, 24 h”, the half-maximal cytotoxic concentration (CC50) at 24 h is over 50 µM.

As to `C=CCNC(N)=S` [Allylthiourea], under “AC50 (uM) modified / 1000”, the CC50 at 24 h was over 90 µM.

The molecule `COC(=O)C(C)O` (centres unmarked) [Methyl 2-hydroxypropanoate] had a CC50 at 24 h (AC50 (uM) modified / 1000) of over 90 µM.

Take `CNC(=O)O/N=C(\SC)C(=O)N(C)C` [Oxamyl]: the CC50 at 24 h is, setting by setting: (AC50 (uM) modified / 1000, Tox21_110001=Tox21_201731, viability, 1 nM T3 present, 24 h) over 100 µM; (AC50 (uM) modified / 1000, Tox21_110001=Tox21_301156, viability, 1 nM T3 present, 24 h) over 90 µM.

For the molecule `COc1cc(NCc2ccc3nc(N)nc(N)c3c2C)cc(OC)c1OC` [Trimetrexate trihydrochloride], the CC50 at 24 h (AC50 (uM) modified / 1000) came to 8.81 µM.

Consider `COC(=O)c1ccccc1` [Methyl benzoate], for which the CC50 at 24 h (AC50 (uM) modified / 1000) is over 90 µM.

Take `Cc1cc(C)cc(C(=O)OC2C[C@H]3CC[C@@H](C2)N3C)c1` (some centres unmarked): where the note is “AC50 (uM) modified / 1000”, it took 22.4 µM to reach half-maximal cytotoxicity (CC50 at 24 h).

Molecule `COc1ccc2c3c1O[C@H]1[C@H](O)CC[C@H]4[C@@H](C2)N(C)CC[C@@]341` [Dihydroisocodeine] returned a CC50 at 24 h (AC50 (uM) modified / 1000) of over 90 µM.

In turn, `CC(C)(O)C(=O)c1ccccc1` [2-Hydroxy-2-methylpropiophenone] showed a CC50 at 24 h (AC50 (uM) modified / 1000) of over 90 µM.

For `c1ccc(Oc2ccccc2)cc1` [Diphenyl oxide], the CC50 at 24 h (AC50 (uM) modified / 1000) is over 90 µM.

`C=CCOc1ccc(CC(=O)O)cc1Cl` [Alclofenac] returned a CC50 at 24 h (AC50 (uM) modified / 1000) of over 50 µM.

For the setting “AC50 (uM) modified / 1000”, `C/C=C1\NC(=O)[C@H]2CSSCC/C=C/[C@H](CC(=O)N[C@H](C(C)C)C(=O)N2)OC(=O)[C@H](C(C)C)NC1=O` [Romidepsin] returned a CC50 at 24 h of 0.0269 µM.

Under “AC50 (uM) modified / 1000”, `Cc1nnc2n1-c1ccc(Cl)cc1C(c1ccccc1Cl)=NC2` [Triazolam] registered a CC50 at 24 h of over 50 µM.

The molecule `CC(C)Nc1nc(Cl)nc(NC(C)C)n1` [Propazine] showed a CC50 at 24 h (AC50 (uM) modified / 1000, Tox21_110001=Tox21_201394, viability, 1 nM T3 present, 24 h) of over 90 µM.

In turn, `CC(C)C(=O)OCCOc1ccccc1` [Phenoxyethyl isobutyrate] displayed a CC50 at 24 h (AC50 (uM) modified / 1000) of over 90 µM.

For the setting “AC50 (uM) modified / 1000”, `CN1CCN2c3ccccc3Cc3ccccc3C2C1` (centres unmarked) [Mianserin] gave a CC50 at 24 h of 20.6 µM.

The CC50 is the concentration giving 50% cytotoxicity.

Values taken from publication PMC6792352, “Limited Chemical Structural Diversity Found to Modulate Thyroid Hormone Receptor in the Tox21 Chemical Library” (Environmental Health Perspectives, 2019).
